Reference: patent publication US20140155410A1 (GlaxoSmithKline LLC, priority 2008, published 2014)

Legend:
[1] = target: T1, Full length Human FAK (Flag-His-TEV-FAK1) (Homo sapiens, UniProt Q05397); assay: Biochemical assay for FAK activity, Assay 2: LANCE Ultra ULight peptide phosphorylation, 665 nm/615 nm ratio; settings: Flag-His-TEV-FAK1, 10 μM ATP, 30 min pre-incubation; for IC50: read-out: Assay 2 FAK H 31284A TRF PXC50 (converted)
T1 construct: Full length Human FAK was expressed using baculovirus in Sf9 cells; made in house; host or cells: baculovirus in Sf9 cells
T1 sequence (Q05397 whole entry): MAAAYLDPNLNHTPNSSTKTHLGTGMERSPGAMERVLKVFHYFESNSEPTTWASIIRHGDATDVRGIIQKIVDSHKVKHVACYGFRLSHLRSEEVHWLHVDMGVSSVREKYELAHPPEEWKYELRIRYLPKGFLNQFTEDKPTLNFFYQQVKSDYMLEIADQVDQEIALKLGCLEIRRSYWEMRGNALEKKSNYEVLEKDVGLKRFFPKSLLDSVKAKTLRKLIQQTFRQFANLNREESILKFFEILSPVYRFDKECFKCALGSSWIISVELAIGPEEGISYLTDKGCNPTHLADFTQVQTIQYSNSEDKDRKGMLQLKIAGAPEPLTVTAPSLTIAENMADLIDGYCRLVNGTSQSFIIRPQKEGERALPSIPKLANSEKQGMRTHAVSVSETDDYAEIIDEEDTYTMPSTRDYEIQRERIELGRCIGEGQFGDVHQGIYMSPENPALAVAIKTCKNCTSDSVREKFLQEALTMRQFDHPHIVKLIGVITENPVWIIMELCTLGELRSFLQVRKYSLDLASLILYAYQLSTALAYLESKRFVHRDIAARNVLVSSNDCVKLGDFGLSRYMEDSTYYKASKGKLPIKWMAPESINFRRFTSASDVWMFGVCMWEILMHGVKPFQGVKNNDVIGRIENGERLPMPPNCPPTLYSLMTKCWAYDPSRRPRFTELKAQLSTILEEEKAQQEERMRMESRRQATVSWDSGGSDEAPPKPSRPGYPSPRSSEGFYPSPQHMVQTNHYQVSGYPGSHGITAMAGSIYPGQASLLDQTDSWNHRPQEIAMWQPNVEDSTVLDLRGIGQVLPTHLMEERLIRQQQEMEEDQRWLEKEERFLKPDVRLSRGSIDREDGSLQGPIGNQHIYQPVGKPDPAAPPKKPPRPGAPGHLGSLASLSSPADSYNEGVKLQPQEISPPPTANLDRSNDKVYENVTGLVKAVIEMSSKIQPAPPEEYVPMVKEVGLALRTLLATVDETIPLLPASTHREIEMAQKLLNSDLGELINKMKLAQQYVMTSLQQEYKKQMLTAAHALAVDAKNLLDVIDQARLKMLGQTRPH
Procedure: Flag-His-TEV-FAK1 was prepared in-house. Full length Human FAK was expressed using baculovirus in Sf9 cells with N-terminal FLAG-6×His tags followed by a TEV cleavage site (FLAG-6×His-TEV-huFAK). […] To measure inhibitors of FAK, compounds were first prepared as a 100× stock in 100% DMSO. […] After incubating for 120 minutes at room temperature, the reaction is quenched by adding 5 uL of 20 mM EDTA and 5nMEu-Anti-pTyr antibody in 1× LANCE detection buffer.

[2] = target: T2, GST-tagged FAK (Homo sapiens, UniProt Q05397); assay: Biochemical assay for FAK activity, Assay 1: phosphorylation of peptide substrate with radio-labeled ATP; settings: 5 μM ATP, 30 min pre-incubation; for IC50: read-out: Assay 1 FAK TRF PXC50 (converted)
T2 construct: purchased Invitrogen PV3832
T2 sequence (Q05397 whole entry): as above
Procedure: GST-tagged (glutathione S-transferase-tagged) FAK was purchased from Invitrogen (PV3832) (www.invitrogen.com). […] To measure inhibitors of FAK, compounds were first prepared as a 10× stock in 10% DMSO. […] A 6-nM GST-FAK solution was prepared in 1.1× reaction buffer containing 44 mM HEPES, pH=7.2, 11 mM MgCl2, 2.2 mM MnCl2, 1.1 mM DTT and 0.011% Tween-20. Then, 20 μL of the 6 nM GST-FAK solution were pre-incubated with the compounds for 30 min at room temperature. […] The reaction was allowed to proceed for 90 min before being quenched with 40 μL of 1% H3PO4. A portion of the reaction mixture (60 μL) was transferred to a phospho-cellulose filter plate (Millipore; www.millipore.com, MAPHNOB50) and incubated for 20 minutes. The plate was filtrated, washed three times using 150 μL of 0.5% H3PO4 and dried at 50° C. for 30 min. After the addition of 60 μL Microscint-20 to the plate, radioactivity was measured using a TopCount (PerkinElmer; www.PerkinElmer.com).

Compound | IC50 [1] [nM] | IC50 [2] [nM] | Assay 2 FAK H 31284A TRF PXC50 [1] | Assay 1 FAK TRF PXC50 [2]
CNC(=O)c1ccccc1Nc1cc(Nc2cc(-c3ccccc3)nn2C)ncc1Cl [Example 1, 2-[5-Chloro-2-(2-methyl-53-ylamino)-pyridin-4-ylamino]-N-methyl-benzamide] | 15.8 | 2 | – | –
CCn1nccc1Nc1cc(Nc2ccccc2C(=O)NC)c(C(F)(F)F)cn1 [Example 29, 2-{[2-[(1-Ethyl-1H-pyrazol-5-yl)amino]-5-(trifluoromethyl)-4-pyridinyl]amino}-N-methylbenzamide] | 2 | 0.501 | – | –
CNC(=O)c1ccccc1Nc1cc(Nc2cc(C)nn2C)ncc1Cl [Example 5, 2-({5-Chloro-2-[(1,3-dimethyl-1H-pyrazol-5-yl)amino]-4-pyridinyl}amino)-N-methylbenzamide] | 7.94 | 1 | – | –
CCn1nccc1Nc1cc(Nc2ccccc2C(=O)NC)c(Cl)cn1 [Example 3, 2-({5-Chloro-2-[(1-ethyl-1H-pyrazol-5-yl)amino]-4-pyridinyl}amino)-N-methylbenzamide] | 5.01 | 0.631 | – | –
CCNC(=O)c1ccccc1Nc1cc(Nc2cc(C)nn2C)ncc1Cl [Example 43, 2-({5-Chloro-2-[(1,3-dimethyl-1H-pyrazol-5-yl)amino]-4-pyridinyl}amino)-N-ethylbenzamide] | 25.1 | 5.01 | – | –
CNC(=O)c1ccccc1Nc1cc(Nc2cc(C(C)(C)C)nn2C)ncc1Cl [Example 14, 2-[(5-Chloro-2-{[3-(1,1-dimethylethyl)-1-methyl-1H-pyrazol-5-yl)amino]-4-pyridinyl}amino]-N-methylbenzamide] | 20 | 2.51 | – | –
CNC(=O)c1ccccc1Nc1cc(Nc2cc(C)nn2CCO)ncc1Cl [Example 16, 2-[(5-Chloro-2-{[1-(2-hydroxyethyl)-3-methyl-1H-pyrazol-5-yl]amino}-4-pyridinyl)amino]-N-methylbenzamide] | 20 | 1.26 | – | –
CCn1nccc1Nc1cc(Nc2ccc(Cl)cc2C(=O)NC)c(Cl)cn1 [Example 12, 5-Chloro-2-({5-chloro-2-[(1-ethyl-1H-pyrazol-5-yl)amino]-4-pyridinyl}amino)-N-methylbenzamide] | 5.01 | 2.51 | – | –
CONC(=O)c1ccccc1Nc1cc(Nc2cc(C)nn2C(C)C)ncc1Cl [Example 41, 2-[(5-Chloro-2-{[3-methyl-1-(1-methylethyl)-1H-pyrazol-5-yl]amino}-4-pyridinyl)amino]-N-(methyloxy)benzamide] | 2 | 0.398 | – | –
CNC(=O)c1ccccc1Nc1cc(Nc2cc(C)nn2C)ncc1C(F)(F)F [Example 28, 2-{[2-[(1,3-Dimethyl-1H-pyrazol-5-yl)amino]-5-(trifluoromethyl)-4-pyridinyl]amino}-N-methylbenzamide] | 2.51 | 0.398 | – | –
CCn1nc(C(=O)NC)cc1Nc1cc(Nc2ccccc2C(=O)NC)c(Cl)cn1 [Example 20, 5-{[5-Chloro-4-({2-[(methylamino)carbonyl]phenyl}amino)-2-pyridinyl]amino}-1-ethyl-N-methyl-1H-pyrazole-3-carboxamide] | 39.8 | 10 | – | –
CNC(=O)c1ccccc1Nc1cc(Nc2cnn(C)c2C)ncc1Cl [Example 59, 2-({5-Chloro-2-[(1,5-dimethyl-1H-pyrazol-4-yl)amino]-4-pyridinyl}amino)-N-methylbenzamide] | 5.01 | 0.631 | – | –
CONC(=O)c1ccccc1Nc1cc(Nc2cc(C)nn2C)ncc1Cl [Example 36, 2-({5-Chloro-2-[(1,3-dimethyl-1H-pyrazol-5-yl)amino]-4-pyridinyl}amino)-N-(methyloxy)benzamide] | 1.58 | 0.398 | – | –
CCn1nc(C)cc1Nc1cc(Nc2ccccc2C(=O)NC)c(Cl)cn1 [Example 13, 2-({5-Chloro-2-[(1-ethyl-3-methyl-1H-pyrazol-5-yl)amino]-4-pyridinyl}amino)-N-methylbenzamide] | 2 | 0.501 | – | –
CCn1nc(CO)cc1Nc1cc(Nc2ccccc2C(=O)NC)c(Cl)cn1 [Example 15, 2-[(5-Chloro-2-{[1-ethyl-3-(hydroxymethyl)-1H-pyrazol-5-yl]amino}-4-pyridinyl)amino]-N-methylbenzamide] | 20 | 2.51 | – | –
CNC(=O)c1ccccc1Nc1cc(Nc2cn(C)nc2C)ncc1Cl [Example 26, 2-({5-Chloro-2-[(1,3-dimethyl-1H-pyrazol-4-yl)amino]-4-pyridinyl}amino)-N-methylbenzamide] | 3.98 | 0.398 | – | –
CCn1nc(C)cc1Nc1cc(Nc2ccccc2C(=O)NC)c(C(F)(F)F)cn1 [Example 32, 2-{[2-[(1-Ethyl-3-methyl-1H-pyrazol-5-yl)amino]-5-(trifluoromethyl)-4-pyridinyl]amino}-N-methylbenzamide] | 1 | 0.398 | – | –
CNC(=O)c1ccccc1Nc1cc(Nc2cc(C)nn2CC(F)(F)F)ncc1Cl [Example 21, 2-[(5-Chloro-2-{[3-methyl-1-(2,2,2-trifluoroethyl)-1H-pyrazol-5-yl]amino}-4-pyridinyl)amino]-N-methylbenzamide] | 63.1 | 3.16 | – | –
Cc1cc(Nc2cc(Nc3ccccc3C(=O)NOCCN(C)C)c(Cl)cn2)n(C)n1 [Example 38, 2-({5-Chloro-2-[(1,3-dimethyl-1H-pyrazol-5-yl)amino]-4-pyridinyl}amino)-N-{[2-(dimethylamino)ethyl]oxy}benzamide] | 1000 | 251 | – | –
CNC(=O)c1ccccc1Nc1cc(Nc2ccnn2C2CCN(C)CC2)ncc1Cl [Example 22, 2-[(5-Chloro-2-{[1-(1-methyl-4-piperidinyl)-1H-pyrazol-5-yl]amino}-4-pyridinyl)amino]-N-methylbenzamide] | 251 | 31.6 | – | –
CNC(=O)c1cc(F)c(F)cc1Nc1cc(Nc2cc(C)nn2C)ncc1Cl [Example 9, 2-({5-Chloro-2-[(1,3-dimethyl-1H-pyrazol-5-yl)amino]-4-pyridinyl}amino)-4,5-difluoro-N-methylbenzamide] | 6.31 | 1 | – | –
CNC(=O)c1ccccc1Nc1cc(Nc2cc(C)nn2C(C)C)ncc1Cl [Example 4, 2-[(5-Chloro-2-{[3-methyl-1-(1-methylethyl)-1H-pyrazol-5-yl]amino}-4-pyridinyl)amino]-N-methylbenzamide] | 6.31 | 1 | – | –
CCNC(=O)c1ccccc1Nc1cc(Nc2cc(C)nn2C(C)C)ncc1Cl [Example 45, 2-[(5-Chloro-2-{[3-methyl-1-(1-methylethyl)-1H-pyrazol-5-yl]amino}-4-pyridinyl)amino]-N-ethylbenzamide] | 63.1 | 10 | – | –
CNC(=O)c1ccccc1Nc1cc(Nc2cc(C3CC3)nn2C)ncc1Cl [Example 6, 2-({5-Chloro-2-[(3-cyclopropyl-1-methyl-1H-pyrazol-5-yl)amino]-4-pyridinyl}amino)-N-methylbenzamide] | 5.01 | 1.26 | – | –
CCn1nc(C(=O)NOC)cc1Nc1cc(Nc2ccccc2C(=O)NC)c(Cl)cn1 [Example 19, 5-{[5-Chloro-4-({2-[(methylamino)carbonyl]phenyl}amino)-2-pyridinyl]amino}-1-ethyl-N-(methyloxy)-1H-pyrazole-3-carboxamide] | 63.1 | 5.01 | – | –
CCn1nccc1Nc1cc(Nc2ccc(N3CCN(CCO)CC3)cc2C(=O)NC)c(Cl)cn1 [Example 67, 2-({5-Chloro-2-[(1-ethyl-1H-pyrazol-5-yl)amino]-4-pyridinyl}amino)-5-[4-(2-hydroxyethyl)-1-piperazinyl]-N-methylbenzamide] | 5.01 | 63.1 | – | –
CNC(=O)c1cccc(F)c1Nc1cc(Nc2cc(C)nn2C)ncc1Cl [Example 8, 2-({5-Chloro-2-[(1,3-dimethyl-1H-pyrazol-5-yl)amino]-4-pyridinyl}amino)-3-fluoro-N-methylbenzamide] | 5.01 | 0.631 | – | –
2-({5-Chloro-2-[(1-ethyl-1H-pyrazol-5-yl)amino]-4-pyridinyl}amino)-N-ethylbenzamide [Example 44] | – | – | 7.2 | 8.2
CCNC(=O)c1ccccc1Nc1cc(Nc2cc(C)nn2CC)ncc1Cl [Example 42, 2-({5-Chloro-2-[(1-ethyl-3-methyl-1H-pyrazol-5-yl)amino]-4-pyridinyl}amino)-N-ethylbenzamide] | 50.1 | 12.6 | – | –
CCn1nc(C(=O)NCCN(C)C)cc1Nc1cc(Nc2ccccc2C(=O)NC)c(Cl)cn1 [Example 24, 5-{[5-Chloro-4-({2-[(methylamino)carbonyl]phenyl}amino)-2-pyridinyl]amino}-N-[2-(dimethylamino)ethyl]-1-ethyl-1H-pyrazole-3-carboxamide] | 63.1 | 6.31 | – | –
